Source: patent publication US20230056205A1, “SUBSTITUTED 4,6-DIHYDROSPIRO[[1,2,3]TRIAZOLO[4,5-B]PYRIDINE-7,3'-INDOLINE]-2',5(3H)-DIONE ANALOGUES” (The Board of Regents of The University of Texas System, priority 2019, published 2023)
Where two headings read alike, the source gives them in different places.

How the values were obtained:
[1] = tested on: DENV-1 replicon; test: Luciferase reporter replicon-based screening, DENV-1; assay type: cell-based, DENV-1 (strain WestPac); details: Dengue virus, DENV1, Huh-7, 48 h, read-out: EC50 DENV-1
Experimental: (§1) Luciferase Reporter Replicon-Based Screening. Huh7 cells containing a luciferase reporter replicon of DENV-1 (strain WestPac), DENV-2 (New Guinea C strain, NGC), DENV-3 (strain D3MY05-34640) and DENV-4 (strain D4MY01-22713) were used in this study. The replicon cells containing the Renilla luciferase and neomycin-resistance genes were generated using a similar strategy as described previously.^55 Briefly, Huh7 DENV-1 to -4 replicon cells were seeded at a density of 10k per well in a 96-well microplate. After incubation at 37° C. with 5% CO2 overnight, the cells were treated with 2-fold serial dilutions of compounds. Experiments were performed in duplicates. After 48 h of incubation, luciferase activities were measured using the EnduRen live-cell substrate (Promega) by following the manufacturer’s instructions. The dose-dependent curve was plotted and EC50 values were calculated using four parameter logistic regression in GraphPad software Prism 8.0.

[2] = tested on: DENV-2 replicon; test: Luciferase reporter replicon-based screening, DENV-2; assay type: cell-based, DENV-2 (New Guinea C strain, NGC)
Experimental: as §1

[3] = tested on: DENV-3 replicon; test: Luciferase reporter replicon-based screening, DENV-3; assay type: cell-based, DENV-3 (strain D3MY05-34640)
Experimental: as §1

[4] = tested on: DENV-4 replicon; test: Luciferase reporter replicon-based screening, DENV-4; assay type: cell-based, DENV-4 (strain D4MY01-22713); details: Dengue virus, DENV4, Huh-7, 48 h, read-out: EC50 DENV-4
Experimental: as §1

[5] = Cytotoxicity assay (CellTiter-Glo); assay type: cell-based; details: human, Huh7 cells stably expressing DENV-2 replicon
Experimental: Cytotoxicity Assay. Huh7 cells or Huh7 replicon cells were seeded in a 96-well plate. After incubation at 37° C. with 5% CO2 overnight, the cells were treated with 2-fold serial dilutions of compounds. Experiments were performed in duplicates. After 48 h of incubation, cell viability was measured by adding the CellTiter-Glo reagent (Promega) to each well. The cell viability in 0.45% DMSO-treatment groups was treated at 100%. The cell viability in compound-treated wells was normalized to that of DMSO-treated wells. CC50 values were calculated using four parameter logistic regression in GraphPad software Prism 8.0.

[6] = Dengue virus, DENV2, Huh-7, 48 h, read-out: EC50 DENV-2, Huh7 cells stably expressing DENV-2 replicon, 48 h
[7] = Dengue virus, DENV3, Huh-7, 48 h, read-out: EC50 DENV-3, Huh7 cells stably expressing DENV-3 replicon, 48 h
[8] = read-out: EC50 DENV-2, Huh7 cells stably expressing DENV-2 replicon, 48 h
[9] = read-out: EC50 DENV-3, Huh7 cells stably expressing DENV-3 replicon, 48 h

SMILES | EC50 [1] [nM] | EC50 [2, 6] [nM] | EC50 [3, 7] [nM] | EC50 [4] [nM] | CC50 at 48 h [5] [nM] | EC50 [2, 8] [nM] | EC50 [3, 9] [nM]
C#CCN1C(=O)[C@]2(CC(=O)Nc3c2nnn3[C@@H](C)c2ccc(Cl)cc2)c2cc(Cl)ccc21 [Compound 19, (R)-5ʹ-Chloro-3-((S)-1-(4-chlorophenyl)ethyl)-1ʹ-(prop-2-yn-1-yl)-4,6-dihydrospiro [[1,2,3]triazolo[4,5-b]pyridine-7,3ʹ-indoline]-2ʹ,5(3H)-dione] | > 5000 | 69 | 3 | > 5000 | > 10000 | – | –
CCCCCCCCCCN1C(=O)[C@]2(CC(=O)Nc3c2nnn3[C@@H](C)c2ccc(Cl)cc2)c2cc(Cl)ccc21 [Compound 12, (R)-5'-Chloro-3-((S)-1-(4-chlorophenyl)ethyl)-1'-decyl-4,6-dihydrospiro[[1,2,3]triazolo[4,5-b]pyridine-7,3'-indoline]-2ʹ,5(3H)-dione] | 3400 | > 10000 | 1200 | 7300 | > 10000 | – | –
CC(C)N1C(=O)C[C@]2(C(=O)Nc3ccc(Cl)cc32)c2nnn([C@@H](C)c3ccc(Cl)cc3)c21 [Compound 21, (R)-5'-Chloro-3-((S)-1-(4-chlorophenyl)ethyl)-4-isopropyl-4,6-dihydrospiro[[1,2,3]triazolo[4,5-b]pyridine-7,3'-indoline]-2',5(3H)-dione] | 2100 | 860 | 310 | 4400 | > 10000 | – | –
Cc1ccc(CN2C(=O)[C@]3(CC(=O)Nc4c3nnn4[C@@H](C)c3ccc(Cl)cc3)c3cc(Cl)ccc32)cn1 [Compound 37, (R)-5'-Chloro-3-((S)-1-(4-chlorophenyl)ethyl)-1'-((6-methylpyridin-3-yl)methyl)-4,6-dihydrospiro[[1,2,3]triazolo[4,5-b]pyridine-7,3'-indoline]-2',5(3H)-dione] | > 5000 | 150 | 11 | > 5000 | > 10000 | – | –
C[C@@H](c1ccc(Cl)cc1)n1nnc2c1NC(=O)C[C@]21C(=O)N(CCCCN2CCCCC2)c2ccc(Cl)cc21 [Compound 67, (R)-5'-Chloro-3-((S)-1-(4-chlorophenyl)ethyl)-1'-(4-(piperidin-1-yl)butyl)-4,6-dihydrospiro[[1,2,3]triazolo[4,5-b]pyridine-7,3'-indoline]-2',5(3H)-dione] | > 5000 | 350 | 78 | > 5000 | > 10000 | – | –
CCN1C(=O)[C@]2(CC(=O)Nc3c2nnn3[C@@H](C)c2ccc(Cl)cc2)c2cc(Cl)ccc21 [Compound 8, (R)-5'-Chloro-3-((S)-1-(4-chlorophenyl)ethyl)-1'-ethyl-4,6-dihydrospiro[[1,2,3]triazolo[4,5-b]pyridine-7,3'-indoline]-2',5(3H)-dione] | 2500 | 24 | 6 | > 5000 | > 10000 | – | –
C[C@@H](c1ccc(Cl)cc1)n1nnc2c1NC(=O)C[C@]21C(=O)N(CCN2CCC2)c2ccc(Cl)cc21 [Compound 61, (R)-1'-(2-(Azetidin-1-yl)ethyl)-5'-chloro-3-((S)-1-(4-chlorophenyl)ethyl)-4,6-dihydrospiro[[1,2,3]triazolo[4,5-b]pyridine-7,3'-indoline]-2',5(3H)-dione] | > 5000 | 67 | 7 | > 5000 | > 10000 | – | –
C[C@@H](c1ccc(Cl)cc1)n1nnc2c1NC(=O)C[C@]21C(=O)N(Cc2cc(C(C)(C)C)cc(C(C)(C)C)c2)c2ccc(Cl)cc21 [Compound 31, (R)-5'-Chloro-3-((S)-1-(4-chlorophenyl)ethyl)-1'-(3,5-di-tert-butylbenzyl)-4,6-dihydrospiro[[1,2,3]triazolo[4,5-b]pyridine-7,3ʹ-indoline]-2',5(3H)-dione] | 4600 | > 10000 | 5900 | 4900 | > 10000 | – | –
CC(C)CN1C(=O)[C@]2(CC(=O)Nc3c2nnn3[C@@H](C)c2ccc(Cl)cc2)c2cc(Cl)ccc21 [Compound 14, (R)-5'-Chloro-3-((S)-1-(4-chlorophenyl)ethyl)-1'-isobutyl-4,6-dihydrospiro[[1,2,3]triazolo[4,5-b]pyridine-7,3'-indoline]-2',5(3H)-dione] | 1300 | 150 | 20 | > 5000 | > 10000 | – | –
C[C@@H](c1ccc(Cl)cc1)n1nnc2c1NC(=O)C[C@]21C(=O)N(Cc2ccccc2)c2ccc(Cl)cc21 [Compound 24, (R)-1ʹ-Benzyl-5ʹ-chloro-3-((S)-1-(4-chlorophenyl)ethyl)-4,6-dihydrospiro[[1,2,3]triazolo[4,5-b]pyridine-7,3ʹ-indoline]-2ʹ,5(3H)-dione] | 2000 | 140 to 290 | 20 to 51 | > 5000 | > 10000 | 150 | 20
C[C@@H](c1ccc(Cl)cc1)n1nnc2c1NC(=O)C[C@]21C(=O)N(CCN2CCOCC2)c2ccc(Cl)cc21 [Compound 55, (R)-5'-chloro-3-((S)-1-(4-chlorophenyl)ethyl)-1'-(2-morpholinoethyl)-4,6-dihydrospiro[[1,2,3]triazolo[4,5-b]pyridine-7,3'-indoline]-2',5(3H)-dione] | > 5000 | 75 | 17 | > 5000 | > 10000 | – | –
C[C@@H](c1ccc(Cl)cc1)n1nnc2c1NC(=O)C[C@]21C(=O)N(CCCN2CCOCC2)c2ccc(Cl)cc21 [Compound 65, (R)-5'-Chloro-3-((S)-1-(4-chlorophenyl)ethyl)-1'-(3-morpholinopropyl)-4,6-dihydrospiro[[1,2,3]triazolo[4,5-b]pyridine-7,3'-indoline]-2',5(3H)-dione] | > 5000 | 76 | 5 | > 5000 | > 10000 | – | –
CNCCN1C(=O)[C@]2(CC(=O)Nc3c2nnn3[C@@H](C)c2ccc(Cl)cc2)c2cc(Cl)ccc21 [Compound 62, (R)-5'-chloro-3-((S)-1-(4-chlorophenyl)ethyl)-1'-(2-(methylamino)ethyl)-4,6-dihydrospiro[[1,2,3]triazolo[4,5-b]pyridine-7,3'-indoline]-2',5(3H)-dione] | > 5000 | 120 | 22 | > 5000 | > 10000 | – | –
C[C@@H](c1ccc(Cl)cc1)n1nnc2c1NC(=O)C[C@]21C(=O)N(CCO)c2ccc(Cl)cc21 [Compound 42, (R)-5'-Chloro-3-((S)-1-(4-chlorophenyl)ethyl)-1'-(2-hydroxyethyl)-4,6-dihydrospiro[[1,2,3]triazolo[4,5-b]pyridine-7,3'-indoline]-2',5(3H)-dione] | > 5000 | 37 to 290 | 9 to 76 | > 5000 | > 10000 | 37 | 10
COCCCN1C(=O)C[C@]2(C(=O)Nc3ccc(Cl)cc32)c2nnn([C@@H](C)c3ccc(Cl)cc3)c21 [Compound 40, (R)-5'-Chloro-3-((S)-1-(4-chlorophenyl)ethyl)-4-(3-methoxypropyl)-4,6-dihydrospiro[[1,2,3]triazolo[4,5-b]pyridine-7,3-indoline]-2',5(3H)-dione] | > 10000 | 8700 | 910 | > 10000 | > 10000 | – | –
